Reference: patent publication US9708305B2, “Substituted 1,2,3,4-tetrahydroisoquinoline derivatives for the treatment of hormone-dependent diseases” (UNIVERSITÉ LAVAL, priority 2013, dated 2017)

Assays:
T-47D cells = test: T-47D cell proliferation in presence of E2 (antiestrogenicity); assay type: cell-based; conditions: Homo sapiens, T47D; read-out: Breast cancer cells T-47D (ER+) Antagonist activity (%)
Protocol: CellTitter 96® Aqueous One Solution Cell Proliferation Assay was used as an indirect colorimetric measurement of cell proliferation according to the manufacturer's instructions. Briefly, after the treatments, 20 μL of MTS solution was added to each well (100 μL) of the plates and incubated at 37° C. for 2 h (Saos-2) or 4 h (T-47D). The absorbance at 490 nm was then measured with a Thermo max microplate reader (Molecular Devices, Sunnyvale, Calif.). The control (culture media+DMSO) is set to 100% of cell proliferation.
The cells were plated in 96-well plates at a density of 3 000 cells/well and allowed to attach for 48 h. After this pre-incubation, the inhibitors and the reference compounds diluted in fresh culture media were added to the wells and replaced every 2 days for 7 days of treatment.

Saos-2 (ER+) cells = test: Proliferative activity on Saos-2 (ER+) cells, phenol library; assay type: cell-based; conditions: 1 μM (stated for reference compounds); 7 days; control 100%
Protocol: Estrogens are known to have a beneficial effect on bones. […] The phenol derivatives 3′-EO-09 to 3′-EO-11 and 3′-EO-14 to 3′-EO-17 were tested on the osteoblast-like cell line Saos-2 to further evaluate their SERM capacity (FIG. 13A).
The osteoblast-like Saos-2 cells were maintained in culture flasks (175 cm^2 growth area, BD Falcon) at 37° C. in a 5% CO2 humidified atmosphere and grown in McCoy's 5A medium supplemented with 10% fetal bovine serum (FBS), penicillin (100 IU/mL) and streptomycin (100 μg/mL). Penicillin/streptomycin mix, L-Glutamine, normal and charcoal-stripped FBS were purchased from Wisent, Inc. (St-Bruno, QC, Canada), phenol-red free McCoy's 5A was purchased from PromoCell (Heidelberg, Germany). Chemicals tested were first dissolved in DMSO and subsequent dilutions were done in the cell culture medium. The final concentration of DMSO in the culture medium was 0.1% or less. For the proliferation assay, the […] FBS in the culture medium was replaced with 10% charcoal-stripped FBS. The cells were seeded in 96-well plates at a density of 10 000 cells/well and allowed to attach 24 h. After 24 h, the phenolic compounds diluted in culture medium were added to the wells and replaced every 2 days for 7 days of treatment. As reported above, MTS was used as an indirect colorimetric measurement of cell proliferation according to the manufacturer's instructions, except the plate were incubated 2 h instead of 4 h.

steroid sulfatase (STS) = biological target: T1, steroid sulfatase (STS) (Homo sapiens, UniProt P08842); test: Steroid sulfatase (STS) inhibition, [3H]-E1S to [3H]-E1, homogenate of transfected HEK-293 cells; assay type: biochemical; conditions: transformation of E1S into E1 in homogenate of HEK-293 cells transfected with STS; read-out: Steroid Sulfatase Inhibition IC50
T1 construct: expressed in transfected cells; host or cells: HEK-293 cells stably transfected with STS (G418 selection), obtained from Dr. Van Luu-The; used as freeze-thaw homogenate
T1 sequence (P08842 22-583): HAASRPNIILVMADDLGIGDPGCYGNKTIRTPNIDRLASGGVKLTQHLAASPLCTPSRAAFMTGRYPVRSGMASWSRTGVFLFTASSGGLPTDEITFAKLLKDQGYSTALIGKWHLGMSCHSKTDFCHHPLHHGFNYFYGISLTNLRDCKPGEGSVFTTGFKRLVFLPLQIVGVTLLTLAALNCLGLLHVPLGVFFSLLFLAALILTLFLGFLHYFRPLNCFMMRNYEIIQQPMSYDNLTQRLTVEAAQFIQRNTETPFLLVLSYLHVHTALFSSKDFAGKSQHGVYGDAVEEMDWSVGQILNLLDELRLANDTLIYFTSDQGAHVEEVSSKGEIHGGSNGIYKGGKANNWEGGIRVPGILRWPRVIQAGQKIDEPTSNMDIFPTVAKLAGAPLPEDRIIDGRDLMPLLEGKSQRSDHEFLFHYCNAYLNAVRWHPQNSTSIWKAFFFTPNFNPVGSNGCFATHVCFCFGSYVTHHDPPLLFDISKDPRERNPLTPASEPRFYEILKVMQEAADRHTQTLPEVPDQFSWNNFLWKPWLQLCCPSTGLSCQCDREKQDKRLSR
Protocol: To test STS inhibition, we used homogenated HEK-293 cells overexpressing STS and evaluated the capacity of our compounds to inhibit the conversion of [^3H]-E1S into [^3H]-E1. […] This is outlined in FIG. 5.
An enzymatic assay previously described was used for the inhibition of the transformation of estrone sulfate (E1S) to estrone (E1) by STS.^72 Briefly, the transfected HEK-293 cells were homogenized by repeated (5 times) cycles of freezing (−80° C.) and thawing on ice (4° C.). The homogenates were then incubated for 2 h at 37° C. (shaking water bath) with or without inhibitors (0.01 μM-1 μM) in presence of [^3H]-E1S (9 nM), adjusted to 1 μM with E1S, in a Tris-acetate buffer (pH 7.4) containing 5 mM EDTA and 10% glycerol. After the incubation, 1 mL of xylene was added to each tube and the solutions were then centrifuged at 3000 rpm for 20 min to separate the organic ([^3H]-E1) and aqueous ([^3H]-E1S) phases. Once 500 μL of each phase was added to 10 mL of Biodegradable Counting Scintillant, the radioactivity of samples was recorded using a Wallac 1411 Liquid Scintillation Counter. The percentage of inhibition was determined by comparison with the control (buffer+homogenate+[^3H]-E1S) which was set to 0% of inhibition. IC50 value was obtained using GraphPad Prism 5 (GraphPad Software, La Jolla, Calif.).

SMILES: C[C@]12CC[C@@H]3c4ccc(O)cc4CC[C@H]3[C@@H]1CC[C@@H]2O [E2, 17β-estradiol, reference compound]
- inhibition at 1 µM (T-47D cells): 0%
- proliferation of Saos-2 cells (Saos-2 (ER+) cells): 144%
- IC50 (steroid sulfatase (STS)): > 1000 nM
